According to patent US9573954B2, “Pyrazolopyrimidine compounds” (University Health Network, priority 2012, dated 2017):
Where two headings read alike, the source gives them in different places.

What was measured:
[1] = test system: ovarian cancer cells (OVCAR-3); test: Cancer cell line growth inhibition, Sulforhodamine B assay, OVCAR-3; type: cell-based; conditions: read-out: Cancer Cell Line GI50 Range OVCAR-3
Description: (§1) Breast cancer cells (MDA-MB-231 and MDA-MB-468), colon cancer cells (HCT116) and ovarian cancer cells (PA-1 and OVCAR-3) were seeded (1000 to 4000 in 80 μl per well depending on the cell growth rate) into 96 well plates 24 hours before compound overlay. Compounds were prepared as 10 mM stock solutions in 100% DMSO which were diluted with DMEM (Dulbecco's Modified Eagle's Medium) cell growth Medium (Invitrogen, Burlington, ON, Canada) containing 10% FBS (Fetal Bovine Serum) to concentrations ranging from 50 nM to 250 μM. Aliquots (20 μl) from each concentration were overlaid to 80 μl of the pre-seeded cells in the 96 well plates to make final concentrations of 10 nM to 50 μM. The cells were cultured for 5 days before the Sulforhodamine B assay (SRB) was performed to determine the compound's cell growth inhibition activity.
(§2) Sulforhodamine B (purchased from Sigma, Oakville, ON, Canada) is a water-soluble dye that binds to the basic amino acids of the cellular proteins. Thus, colorimetric measurement of the bound dye provides an estimate of the total protein mass that is related to the cell number. the cells are fixed in situ by gently aspirating off the culture media and adding 50 μl ice cold 10% Trichloroacetic Acid (TCA) per well and incubate at 4° C. for 30-60 min, The plates are washed with H2O five times and allowed to air dry for 5 min. Addition of 50 μl 0.4% (w/v) SRB solution in 1% (v/v) acetic acid to each well and incubation for 30 min at RT completes the staining reaction. Following staining, plates are washed four times with 1% acetic acid to remove unbound dye and then allowed to air dry for 5 min. The stain is solubilized with 100 μl of 10 mM Tris pH 10.5 per well. Absorbance is read at 570 nm.
(§3) The percentage (%) of relative growth inhibition was calculated by comparing to DMSO treated only cells (100%). GI50's were determined for compounds with cytotoxic activity. The GI50 was calculated using GraphPad PRISM software (GraphPad Software, Inc., San Diego, Calif., USA).
(§4) In Table 3 below, GI50 value ranges for compound examples against breast cancer cell lines (MDA-MB-468), colon cancer cell lines (HCT116) and ovarian cancer cell lines (OVCAR-3) are given.

human TTK = molecular target: T1, human TTK (Homo sapiens, UniProt P33981); test: TTK inhibition assay (indirect ELISA); type: biochemical
T1 construct: Active TTK was purchased from Invitrogen as an amino terminal GST fusion of full length human TTK; purchased Invitrogen
T1 sequence (P33981 1-857): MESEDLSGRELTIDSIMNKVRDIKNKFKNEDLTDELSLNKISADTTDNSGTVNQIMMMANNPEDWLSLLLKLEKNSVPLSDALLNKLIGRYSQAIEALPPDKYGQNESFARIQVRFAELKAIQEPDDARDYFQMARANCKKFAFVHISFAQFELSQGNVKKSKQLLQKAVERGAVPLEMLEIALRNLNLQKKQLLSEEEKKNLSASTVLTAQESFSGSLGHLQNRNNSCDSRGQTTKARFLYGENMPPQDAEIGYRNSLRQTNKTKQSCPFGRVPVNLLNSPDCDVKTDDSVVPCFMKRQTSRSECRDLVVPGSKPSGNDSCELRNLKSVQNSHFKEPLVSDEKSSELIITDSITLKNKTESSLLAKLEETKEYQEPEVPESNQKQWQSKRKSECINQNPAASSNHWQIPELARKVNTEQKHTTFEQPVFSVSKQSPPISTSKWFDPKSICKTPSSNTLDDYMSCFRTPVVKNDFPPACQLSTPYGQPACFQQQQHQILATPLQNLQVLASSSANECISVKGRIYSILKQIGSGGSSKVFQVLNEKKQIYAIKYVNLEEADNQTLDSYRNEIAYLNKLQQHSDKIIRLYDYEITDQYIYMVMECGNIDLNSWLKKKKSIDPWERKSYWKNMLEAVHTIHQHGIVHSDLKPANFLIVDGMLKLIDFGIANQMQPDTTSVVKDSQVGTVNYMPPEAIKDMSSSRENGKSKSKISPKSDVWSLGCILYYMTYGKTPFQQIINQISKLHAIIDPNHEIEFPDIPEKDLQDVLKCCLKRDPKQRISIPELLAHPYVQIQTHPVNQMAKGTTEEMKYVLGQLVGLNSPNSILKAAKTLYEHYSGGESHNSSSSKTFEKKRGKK
Description: Active TTK was purchased from Invitrogen as an amino terminal GST fusion of full length human TTK.
TTK activity was measured using an indirect ELISA detection system.
Compounds were pre-incubated in the presence of enzyme for 5 minutes prior to addition of ATP and the activity remaining quantified using the above described activity assay. The % Inhibition of a compound was determined using the following formula; % Inhibition=100×(1−(experimental value−background value)/(high activity control−background value)). The IC50 value was determined using a non-linear 4 point logistic curve fit (XLfit4, IDBS) with the formula; (A+(B/(1+((x/C)^D)))), where A=background value, B=range, C=inflection point, D=curve fit parameter.

[2] = test system: breast cancer cells (MDA-MB-468); test: Cancer cell line growth inhibition, Sulforhodamine B assay, MDA-MB-468; type: cell-based; conditions: read-out: Cancer Cell Line GI50 Range MDA-MB-468
Description: as §1, §2, §3
(§5) In Table 1 below, GI50 value ranges for compound examples against breast cancer cell lines (MDA-MB-468), colon cancer cell lines (HCT116) and ovarian cancer cell lines (PA-1) are given.
as §4

[3] = test system: colon cancer cells (HCT116); test: Cancer cell line growth inhibition, Sulforhodamine B assay, HCT116; type: cell-based; conditions: read-out: Cancer Cell Line GI50 Range HCT116
Description: as §1, §2, §3, §5
In Table 2 below, GI50 value ranges for compound examples against breast cancer cell lines (MDA-MB-231), colon cancer cell lines (HCT116) and ovarian cancer cell lines (PA-1) are given.
as §4

[4] = 100 μM ATP, read-out: TTK IC50 Range
[5] = Homo sapiens, OVCAR-3, OVCAR-3 ovarian cancer cell line
[6] = 16 μM ATP (Sigma cat# A7699), read-out: TTK IC50 Range (denoted with an asterisk)
[7] = Homo sapiens, MDA-MB-468, MDA-MB-468 breast cancer cell line
[8] = Homo sapiens, HCT-116, HCT116 colon cancer cell line

Cc1cc(-c2cnn3c(NCc4ccncc4)cc(NC4CCOCC4)nc23)ccc1C(=O)NC1CC1 [Example C54]
GI50 ([1]; OVCAR-3 ovarian cancer cell line): 100 to 500 nM
IC50 (human TTK; [4]): < 100 nM
GI50 ([2]; MDA-MB-468 breast cancer cell line): 100 to 500 nM
GI50 ([3]; HCT116 colon cancer cell line): 100 to 500 nM

CC(=O)Nc1cccc(Oc2nc(NCC3CCOCC3)n3ncc(-c4ccc(C(=O)NC5CC5)c(C)c4)c3n2)c1 [Example C19]
GI50 [1, 5]: > 500 nM
IC50 (human TTK; [6]): < 100 nM
GI50 [2, 7]: 100 to 500 nM
GI50 [3, 8]: > 500 nM

Cc1cc(-c2cnn3c(NCc4cccnc4)cc(NC4CCOCC4)nc23)ccc1C(=O)NC1CC1 [Example C49]
GI50 [1, 5]: 100 to 500 nM
IC50 (human TTK; [4]): < 100 nM
GI50 [2, 7]: 100 to 500 nM
GI50 [3, 8]: 100 to 500 nM

Cc1cc(-c2cnn3c(NCC4CCOCC4)cc(N[C@@H]4CCCC[C@H]4O)nc23)ccc1C(=O)NC1CC1 [Example C124]
GI50 [1, 5]: 100 to 500 nM
IC50 (human TTK; [4]): < 100 nM
GI50 [2, 7]: 100 to 500 nM
GI50 [3, 8]: 100 to 500 nM

Cc1cc(-c2cnn3c(NCCN4CCCCC4)cc(Oc4cccc(F)c4)nc23)ccc1C(=O)NC1CC1 [Example C180]
GI50 [1, 5]: 100 to 500 nM
IC50 (human TTK; [4]): < 100 nM
GI50 [2, 7]: 100 to 500 nM
GI50 [3, 8]: ≤ 100 nM

Cc1cc(-c2cnn3c(NCC4CCOCC4)cc(N[C@H](CO)C(C)(C)C)nc23)ccc1C(=O)NC1CC1 [Example C78]
GI50 [1, 5]: 100 to 500 nM
IC50 (human TTK; [4]): < 100 nM
GI50 [2, 7]: 100 to 500 nM
GI50 [3, 8]: 100 to 500 nM

Cc1cc(-c2cnn3c(NCC4CCOCC4)cc(N[C@H](C(N)=O)C(C)C)nc23)ccc1C(=O)NC1CC1 [Example C111]
GI50 [1, 5]: 100 to 500 nM
IC50 (human TTK; [4]): < 100 nM
GI50 [2, 7]: 100 to 500 nM
GI50 [3, 8]: 100 to 500 nM

Cc1cc(-c2cnn3c(NCC4CCOCC4)cc(N4C5CCC4CC(O)C5)nc23)ccc1C(=O)NC1CC1 (stereo not drawn) [Example C66]
GI50 [1, 5]: 100 to 500 nM
IC50 (human TTK; [4]): < 100 nM
GI50 [2, 7]: 100 to 500 nM
GI50 [3, 8]: 100 to 500 nM

O=C(NC1CC1)c1ccc(-c2cnn3c(NCC4CCOCC4)nc(Nc4ccccc4)nc23)cc1Cl [Example C9]
GI50 [1, 5]: 100 to 500 nM
IC50 (human TTK; [6]): < 100 nM
GI50 [2, 7]: > 500 nM
GI50 [3, 8]: > 500 nM

Cc1cc(-c2cnn3c(NCC4(F)CCN(C)CC4)cc(NC4CCCC4)nc23)ccc1C(=O)NC1CC1 [Example C170]
GI50 [1, 5]: > 500 nM
IC50 (human TTK; [4]): < 100 nM
GI50 [2, 7]: 100 to 500 nM
GI50 [3, 8]: 100 to 500 nM

COC[C@@H](Nc1cc(NCC2CCOCC2)n2ncc(-c3ccc(C(=O)NC4CC4)c(C)c3)c2n1)C(C)C [Example C104]
GI50 [1, 5]: 100 to 500 nM
IC50 (human TTK; [4]): < 100 nM
GI50 [2, 7]: 100 to 500 nM
GI50 [3, 8]: ≤ 100 nM

CC[C@H](Nc1cc(NC[C@@H]2CCOC2)n2ncc(-c3ccc(C(=O)NC4CC4)c(C)c3)c2n1)[C@H](C)O [Example C134]
GI50 [1, 5]: 100 to 500 nM
IC50 (human TTK; [4]): < 100 nM
GI50 [2, 7]: 100 to 500 nM
GI50 [3, 8]: 100 to 500 nM

Cc1cc(-c2cnn3c(NCC4CCOCC4)cc(N4CC[C@H](O)C4)nc23)ccc1C(=O)NC1CC1 [Example C143]
GI50 [1, 5]: > 500 nM
IC50 (human TTK; [4]): 100 to 500 nM
GI50 [2, 7]: > 500 nM
GI50 [3, 8]: > 500 nM

Cc1cc(-c2cnn3c(NCC4CCOCC4)cc(N[C@H](CO)C4CCOCC4)nc23)ccc1C(=O)NC1CC1 [Example C89]
GI50 [1, 5]: > 500 nM
IC50 (human TTK; [4]): < 100 nM
GI50 [2, 7]: > 500 nM
GI50 [3, 8]: 100 to 500 nM

Cc1cc(-c2cnn3c(NCC4CCOCC4)cc(N[C@H]4COCC[C@@H]4O)nc23)ccc1C(=O)NC1CC1 [Example C79]
GI50 [1, 5]: > 500 nM
IC50 (human TTK; [4]): < 100 nM
GI50 [2, 7]: > 500 nM
GI50 [3, 8]: > 500 nM

Cc1cc(-c2cnn3c(NCC4CCOCC4)cc(N[C@H]4CCCC[C@@H]4O)nc23)ccc1C(=O)NC1CC1 [Example C125]
GI50 [1, 5]: 100 to 500 nM
IC50 (human TTK; [4]): < 100 nM
GI50 [2, 7]: ≤ 100 nM
GI50 [3, 8]: ≤ 100 nM

O=C(NC1CC1)c1ccc(-c2cnn3c(NCCN4CCOCC4)cc(Oc4cccc(F)c4)nc23)cc1Cl [Example C34]
GI50 [1, 5]: ≤ 100 nM
IC50 (human TTK; [4]): < 100 nM
GI50 [2, 7]: ≤ 100 nM
GI50 [3, 8]: ≤ 100 nM

Cc1cc(-c2cnn3c(NC[C@H]4CCCO4)cc(NC4CCCC4)nc23)ccc1C(=O)NC1CC1 [Example C62]
GI50 [1, 5]: 100 to 500 nM
IC50 (human TTK; [4]): < 100 nM
GI50 [2, 7]: 100 to 500 nM
GI50 [3, 8]: 100 to 500 nM

Cc1cc(-c2cnn3c(NCC4CCOCC4)cc(N[C@H]4COC[C@H]4O)nc23)ccc1C(=O)NC1CC1 [Example C107]
GI50 [1, 5]: > 500 nM
IC50 (human TTK; [4]): < 100 nM
GI50 [2, 7]: 100 to 500 nM
GI50 [3, 8]: 100 to 500 nM

Cc1cc(-c2cnn3c(NC[C@@H]4CCOC4)cc(N[C@H]4CCCC[C@H]4O)nc23)ccc1C(=O)NC1CC1 [Example C36, N-cyclopropyl-4-(5-(((1S,2R)-2-hydroxycyclohexyl)amino)-7-((((S)-tetrahydrofuran-3-yl)methyl)amino)pyrazolo[1,5-a]pyrimidin-3-yl)-2-methylbenzamide]
GI50 [1, 5]: ≤ 100 nM
IC50 (human TTK; [4]): < 100 nM
GI50 [2, 7]: ≤ 100 nM
GI50 [3, 8]: ≤ 100 nM

Cc1cc(-c2cnn3c(NCCN4CCC(O)CC4)cc(N[C@H]4CCCC[C@H]4O)nc23)ccc1C(=O)NC1CC1 [Example C183]
GI50 [1, 5]: > 500 nM
IC50 (human TTK; [4]): < 100 nM
GI50 [2, 7]: 100 to 500 nM
GI50 [3, 8]: > 500 nM
